The values below come from BindingDB's records for doi:10.1016/j.bmcl.2009.08.022 (Roche Palo Alto, 2009).

Sequence of Genome polyprotein (Q9WMX2 2420-3010 limits assumed): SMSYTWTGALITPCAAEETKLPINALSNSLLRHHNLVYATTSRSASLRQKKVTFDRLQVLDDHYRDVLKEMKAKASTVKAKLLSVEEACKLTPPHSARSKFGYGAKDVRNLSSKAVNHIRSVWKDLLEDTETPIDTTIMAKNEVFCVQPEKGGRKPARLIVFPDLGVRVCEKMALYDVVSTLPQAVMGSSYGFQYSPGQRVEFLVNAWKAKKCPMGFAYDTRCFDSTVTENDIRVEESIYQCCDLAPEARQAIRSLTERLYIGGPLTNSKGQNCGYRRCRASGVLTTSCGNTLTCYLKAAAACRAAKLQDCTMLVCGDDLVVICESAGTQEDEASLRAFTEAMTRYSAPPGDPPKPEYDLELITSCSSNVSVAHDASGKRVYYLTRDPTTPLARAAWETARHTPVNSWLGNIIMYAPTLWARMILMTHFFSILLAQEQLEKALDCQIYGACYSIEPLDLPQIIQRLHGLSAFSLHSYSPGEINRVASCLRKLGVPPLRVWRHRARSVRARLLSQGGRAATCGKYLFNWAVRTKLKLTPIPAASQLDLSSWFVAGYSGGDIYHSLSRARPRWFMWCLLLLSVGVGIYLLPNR

This assay concerns the target Genome polyprotein (Hepatitis C virus genotype 1b (isolate Con1), UniProt Q9WMX2). Kind of assay: Inhibition of […] con1 NS5B polymerase assessed as [3H]UTP incorporation into acid insoluble RNA product.
Take `Cc1cc(CN2C(=O)C(=C3NS(=O)(=O)c4c(CN(C)S(C)(=O)=O)cccc43)C(=O)[C@@H]2C(C)(C)C)ccc1F` [N-{3-[(S)-5-tert-Butyl-1-(4-fluoro-3-methyl-benzyl)-4-hydroxy-2-oxo-2,5-dihydro-1H-pyrrol-3-yl]-1,1-dioxo-1H-1lambda*6*-benzo[d]isothiazol-7-ylmethyl}-N-methyl-methanesulfonamide]: the half-maximal inhibitory concentration (IC50) was determined as 5 nM.
For `CC(C)(C)[C@H]1C(=O)C(=C2NS(=O)(=O)c3c(NS(C)(=O)=O)cccc32)C(=O)N1Cc1ccc(F)cc1` [N-{3-[(S)-5-tert-Butyl-1-(4-fluoro-benzyl)-4-hydroxy-2-oxo-2,5-dihydro-1H-pyrrol-3-yl]-1,1-dioxo-1H-1lambda*6*-benzo[d]isothiazol-7-yl}-methanesulfonamide], the half-inhibitory concentration (IC50) was found to be 5 nM.
To `CC(C)(C)[C@H]1C(=O)C(=C2NS(=O)(=O)c3c(CCS(C)(=O)=O)cccc32)C(=O)N1Cc1ccc(F)cc1` [(S)-5-tert-Butyl-1-(4-fluoro-benzyl)-4-hydroxy-3-[7-(2-methanesulfonyl-ethyl)-1,1-dioxo-1H-1lambda*6*-benzo[d]isothiazol-3-yl]-1,5-dihydro-pyrrol-2-one] belongs 4 nM.
Take `Cc1cc(CN2C(=O)C(=C3NS(=O)(=O)c4c(CNS(C)(=O)=O)cccc43)C(=O)[C@@H]2C(C)(C)C)ccc1F` [N-{3-[(S)-5-tert-Butyl-1-(4-fluoro-3-methyl-benzyl)-4-hydroxy-2-oxo-2,5-dihydro-1H-pyrrol-3-yl]-1,1-dioxo-1H-1lambda*6*-benzo[d]isothiazol-7-ylmethyl}-methanesulfonamide]: the IC50 worked out at 4 nM.
As for `CC(C)(C)[C@H]1C(=O)C(C2NS(=O)(=O)c3c(C=NS(N)(=O)=O)cccc32)C(=O)N1Cc1ccc(F)cc1` (stereo partly drawn) [N-({3-[(5S)-5-tert-butyl-1-[(4-fluorophenyl)methyl]-4-hydroxy-2-oxo-2,5-dihydro-1H-pyrrol-3-yl]-1,1-dioxo-{6},2-benzothiazol-7-yl}methyl)aminosulfonamide], the IC50 amounted to 3 nM.
Turning to `Cc1cc(CN2C(=O)C(C3NS(=O)(=O)c4c(C=NS(N)(=O)=O)cccc43)C(=O)[C@@H]2C(C)(C)C)ccc1F` (stereo partly drawn) [N-({3-[(5S)-5-tert-butyl-1-[(4-fluoro-3-methylphenyl)methyl]-4-hydroxy-2-oxo-2,5-dihydro-1H-pyrrol-3-yl]-1,1-dioxo-{6},2-benzothiazol-7-yl}methyl)aminosulfonamide], the IC50 is 3 nM.

The term IC50 denotes the concentration that gives 50% inhibition.
